How the values were obtained:
Test in all cases: relative viability (nuclei count vs DMSO), 5 days (fraction); higher = more cells survive
Vorinostat = compound: O=C(CCCCCCC(=O)Nc1ccccc1)NO [Vorinostat]
How it was run: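 Lung cancer cell lines received five library-drug doses (not always all listed) spaced by √10, pinned on vehicle-anchored 1536-well plates after an overnight stay at 37 °C. Five days later, with no medium change, nuclei were Hoechst-stained, imaged at 4× and counted with MetaXpress. Viability is treated-well nuclei relative to vehicle-well nuclei, as a median across plates. Passing plates had control CV below 25% and at least one doubling.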

Vorinostat + Decitabine = compound: O=C(CCCCCCC(=O)Nc1ccccc1)NO [Vorinostat] + Nc1ncn([C@H]2C[C@H](O)[C@@H](CO)O2)c(=O)n1 [Decitabine] (partner 2 µM)
How it was run: (§1)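 One day after seeding in 1536-well plates, lung cancer cell lines were dosed by pin tool. Dosing was either single-drug or a fixed anchor-drug dose plus five library-drug doses (not always all listed) in √10 steps. After 5 days, nuclei were stained in one fix-and-stain step and counted on 4× images, and relative viability is the nuclei count of treated wells over that of vehicle wells, given as the median of duplicate plates.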

Vorinostat + Navitoclax = compound: O=C(CCCCCCC(=O)Nc1ccccc1)NO [Vorinostat] + CC1(C)CCC(c2ccc(Cl)cc2)=C(CN2CCN(c3ccc(C(=O)NS(=O)(=O)c4ccc(N[C@H](CCN5CCOCC5)CSc5ccccc5)c(S(=O)(=O)C(F)(F)F)c4)cc3)CC2)C1 [Navitoclax] (partner 0.5 µM)
How it was run: as §1

Vorinostat + Foretinib = compound: O=C(CCCCCCC(=O)Nc1ccccc1)NO [Vorinostat] + COc1cc2c(Oc3ccc(NC(=O)C4(C(=O)Nc5ccc(F)cc5)CC4)cc3F)ccnc2cc1OCCCN1CCOCC1 [Foretinib] (partner 0.25 µM)
How it was run: as §1

Vorinostat + Phenformin = compound: O=C(CCCCCCC(=O)Nc1ccccc1)NO [Vorinostat] + N=C(N)NC(=N)NCCc1ccccc1 [Phenformin] (partner 250 µM)
How it was run: as §1

Vorinostat + Alpelisib = compound: O=C(CCCCCCC(=O)Nc1ccccc1)NO [Vorinostat] + Cc1nc(NC(=O)N2CCC[C@H]2C(N)=O)sc1-c1ccnc(C(C)(C)C(F)(F)F)c1 [Alpelisib] (partner 2 µM)
How it was run: as §1

Vorinostat + Linsitinib = compound: O=C(CCCCCCC(=O)Nc1ccccc1)NO [Vorinostat] + C[C@]1(O)C[C@@H](c2nc(-c3ccc4ccc(-c5ccccc5)nc4c3)c3c(N)nccn32)C1 [Linsitinib] (partner 1 µM)
How it was run: as §1

Vorinostat + Crizotinib = compound: O=C(CCCCCCC(=O)Nc1ccccc1)NO [Vorinostat] + C[C@@H](Oc1cc(-c2cnn(C3CCNCC3)c2)cnc1N)c1c(Cl)ccc(F)c1Cl [Crizotinib] (partner 1 µM)
How it was run: as §1

Vorinostat + Olaparib = compound: O=C(CCCCCCC(=O)Nc1ccccc1)NO [Vorinostat] + O=C(c1cc(Cc2n[nH]c(=O)c3ccccc23)ccc1F)N1CCN(C(=O)C2CC2)CC1 [Olaparib] (partner 8 µM)
How it was run: as §1

Vorinostat + Lapatinib = compound: O=C(CCCCCCC(=O)Nc1ccccc1)NO [Vorinostat] + CS(=O)(=O)CCNCc1ccc(-c2ccc3ncnc(Nc4ccc(OCc5cccc(F)c5)c(Cl)c4)c3c2)o1 [Lapatinib] (partner 2 µM)
How it was run: as §1

Vorinostat + Pictilisib = compound: O=C(CCCCCCC(=O)Nc1ccccc1)NO [Vorinostat] + CS(=O)(=O)N1CCN(Cc2cc3nc(-c4cccc5[nH]ncc45)nc(N4CCOCC4)c3s2)CC1 [Pictilisib] (partner 1 µM)
How it was run: as §1

Vorinostat + Bortezomib = compound: O=C(CCCCCCC(=O)Nc1ccccc1)NO [Vorinostat] + CC(C)C[C@H](NC(=O)[C@H](Cc1ccccc1)NC(=O)c1cnccn1)B(O)O [Bortezomib] (partner 0.002 µM)
How it was run: as §1

A549
relative viability (Vorinostat; 0.253 µM): 1.05
relative viability (Vorinostat; 0.8 µM): 0.848
relative viability (Vorinostat; 2.53 µM): 0.337
relative viability (Vorinostat; 8 µM): 0.0442
relative viability (Vorinostat + Decitabine; first compound 0.253 µM): 0.224
relative viability (Vorinostat + Decitabine; first compound 0.8 µM): 0.302
relative viability (Vorinostat + Decitabine; first compound 2.53 µM): 0.256
relative viability (Vorinostat + Decitabine; first compound 8 µM): 0.0174
relative viability (Vorinostat + Navitoclax; first compound 0.253 µM): 1.31
relative viability (Vorinostat + Navitoclax; first compound 0.8 µM): 1.08
relative viability (Vorinostat + Navitoclax; first compound 2.53 µM): 0.352
relative viability (Vorinostat + Navitoclax; first compound 8 µM): 0.0351
relative viability (Vorinostat + Foretinib; first compound 0.253 µM): 0.929
relative viability (Vorinostat + Foretinib; first compound 0.8 µM): 0.478
relative viability (Vorinostat + Foretinib; first compound 2.53 µM): 0.0393
relative viability (Vorinostat + Foretinib; first compound 8 µM): 0.0151
relative viability (Vorinostat + Phenformin; first compound 0.253 µM): 0.17
relative viability (Vorinostat + Phenformin; first compound 0.8 µM): 0.168
relative viability (Vorinostat + Phenformin; first compound 2.53 µM): 0.0474
relative viability (Vorinostat + Phenformin; first compound 8 µM): 0.0242
relative viability (Vorinostat + Alpelisib; first compound 0.253 µM): 0.861
relative viability (Vorinostat + Alpelisib; first compound 0.8 µM): 0.802
relative viability (Vorinostat + Alpelisib; first compound 2.53 µM): 0.104
relative viability (Vorinostat + Alpelisib; first compound 8 µM): 0.0282
relative viability (Vorinostat + Linsitinib; first compound 0.253 µM): 0.673
relative viability (Vorinostat + Linsitinib; first compound 0.8 µM): 0.651
relative viability (Vorinostat + Linsitinib; first compound 2.53 µM): 0.194
relative viability (Vorinostat + Linsitinib; first compound 8 µM): 0.0382
relative viability (Vorinostat + Crizotinib; first compound 0.253 µM): 0.528
relative viability (Vorinostat + Crizotinib; first compound 0.8 µM): 0.107
relative viability (Vorinostat + Crizotinib; first compound 2.53 µM): 0.054
relative viability (Vorinostat + Crizotinib; first compound 8 µM): 0.0379
relative viability (Vorinostat + Olaparib; first compound 0.253 µM): 0.278
relative viability (Vorinostat + Olaparib; first compound 0.8 µM): 0.177
relative viability (Vorinostat + Olaparib; first compound 2.53 µM): 0.0609
relative viability (Vorinostat + Olaparib; first compound 8 µM): 0.0236
relative viability (Vorinostat + Lapatinib; first compound 0.253 µM): 1.02
relative viability (Vorinostat + Lapatinib; first compound 0.8 µM): 0.572
relative viability (Vorinostat + Lapatinib; first compound 2.53 µM): 0.168
relative viability (Vorinostat + Lapatinib; first compound 8 µM): 0.0602
relative viability (Vorinostat + Pictilisib; first compound 0.253 µM): 0.601
relative viability (Vorinostat + Pictilisib; first compound 0.8 µM): 0.4
relative viability (Vorinostat + Pictilisib; first compound 2.53 µM): 0.0772
relative viability (Vorinostat + Pictilisib; first compound 8 µM): 0.0417

Calu-6
relative viability (Vorinostat; 0.253 µM): 1.07
relative viability (Vorinostat; 0.8 µM): 0.894
relative viability (Vorinostat; 2.53 µM): 0.361
relative viability (Vorinostat; 8 µM): 0.0946
relative viability (Vorinostat + Navitoclax; first compound 0.253 µM): 0.849
relative viability (Vorinostat + Navitoclax; first compound 0.8 µM): 0.761
relative viability (Vorinostat + Navitoclax; first compound 2.53 µM): 0.212
relative viability (Vorinostat + Navitoclax; first compound 8 µM): 0.0656
relative viability (Vorinostat + Foretinib; first compound 0.253 µM): 0.975
relative viability (Vorinostat + Foretinib; first compound 0.8 µM): 0.728
relative viability (Vorinostat + Foretinib; first compound 2.53 µM): 0.183
relative viability (Vorinostat + Foretinib; first compound 8 µM): 0.0381
relative viability (Vorinostat + Bortezomib; first compound 0.253 µM): 0.917
relative viability (Vorinostat + Bortezomib; first compound 0.8 µM): 0.864
relative viability (Vorinostat + Bortezomib; first compound 2.53 µM): 0.434
relative viability (Vorinostat + Bortezomib; first compound 8 µM): 0.127
relative viability (Vorinostat + Alpelisib; first compound 0.253 µM): 1.25
relative viability (Vorinostat + Alpelisib; first compound 0.8 µM): 0.917
relative viability (Vorinostat + Alpelisib; first compound 2.53 µM): 0.302
relative viability (Vorinostat + Alpelisib; first compound 8 µM): 0.0879
relative viability (Vorinostat + Linsitinib; first compound 0.253 µM): 0.995
relative viability (Vorinostat + Linsitinib; first compound 0.8 µM): 0.868
relative viability (Vorinostat + Linsitinib; first compound 2.53 µM): 0.293
relative viability (Vorinostat + Linsitinib; first compound 8 µM): 0.0756
relative viability (Vorinostat + Crizotinib; first compound 0.253 µM): 0.745
relative viability (Vorinostat + Crizotinib; first compound 0.8 µM): 0.5
relative viability (Vorinostat + Crizotinib; first compound 2.53 µM): 0.153
relative viability (Vorinostat + Crizotinib; first compound 8 µM): 0.0713
relative viability (Vorinostat + Olaparib; first compound 0.253 µM): 0.527
relative viability (Vorinostat + Olaparib; first compound 0.8 µM): 0.377
relative viability (Vorinostat + Olaparib; first compound 2.53 µM): 0.169
relative viability (Vorinostat + Olaparib; first compound 8 µM): 0.078
relative viability (Vorinostat + Lapatinib; first compound 0.253 µM): 1.12
relative viability (Vorinostat + Lapatinib; first compound 0.8 µM): 0.876
relative viability (Vorinostat + Lapatinib; first compound 2.53 µM): 0.416
relative viability (Vorinostat + Lapatinib; first compound 8 µM): 0.107
relative viability (Vorinostat + Pictilisib; first compound 0.253 µM): 1.11
relative viability (Vorinostat + Pictilisib; first compound 0.8 µM): 0.838
relative viability (Vorinostat + Pictilisib; first compound 2.53 µM): 0.238
relative viability (Vorinostat + Pictilisib; first compound 8 µM): 0.0615

From the supplement of paper PMC10307832
